For series [1], the system named is Ad-TSHR-immunized mice. As to the kind of experiment: ventricular myocardial volumes from digitized cross-sectional LV areas. In kind it is in vivo, BALB/c mice. The settings on record: 1 mg/kg IV 4-weekly, end of experiment. The procedure: In FIG. 7 the effect of the peptide therapy on heart rates at various times during the experiment (A), and on heart weights (B) and cardiac ventricular volumes (C) at the end of the experiment were evaluated in all animals. The measurements were carried out in Ad-TSHR-immunized mice treated by either 4-weekly injections with vehicle (0.9% NaCl, “Graves' no therapy”, n=25 mice), or administrations of 1 mg/kg body weight of peptide of the invention 836 (12 mice), or of peptide 829 (13 mice), or TSHR-Fc (18 mice). In addition, age-matched immunologically naïve unimmunized mice (“healthy”, 19 animals) were investigated. Data are represented as mean±SEM. […]
After euthanasia, dissection of the thyroid glands was performed under a stereomicroscope, as described before (22). […] Thyroid volumes (mm^3) were calculated from the sum of the areas of each section over the whole cutting region. Myocardial volumes (mm^3) were calculated in a similar way as described for thyroid glands from the sum of the areas of each section over whole cutting region (5 to 6 slides, depending on respective size of the hearts). […]

Series [2] concerns CHO cells expressing the human TSHR. The series can be described thus: capacity of serum anti-TSHR antibodies from treated mice to stimulate cAMP in test cells. Further details: species or system BALB/c mice. To be noted: serum of in vivo treated Ad-TSHR-immunized mice, 1 mg/kg IV 4-weekly. The procedure:
The measurements were carried out in Ad-TSHR-immunized mice treated by either 4-weekly injections with vehicle (0.9% NaCl, “Graves' no therapy”, n=25 mice), or administrations of 1 mg/kg body weight of peptide of the invention 836 (12 mice), or of peptide 829 (13 mice), or TSHR-Fc (18 mice), or of control peptide 835 (13 mice). In addition, age-matched immunologically naïve unimmunized mice (“healthy”, 19 animals) were investigated. Data are represented as mean±SEM. Differences between groups were tested by AVOVA followed by post hoc LSD testing.**p<0.005 compared to the TSHR-immunized group treated with only NaCl (“Graves' no therapy”). […]
Anti-TSHR autoantibody titers and potency of antibodies to stimulate TSHR-dependent cAMP levels in test cells were determined before start of immunisation (basal value), 56 days after first immunisation, 133 days after first immunisation, and 189 days after first immunisation, and at the end of experiment. […]
2) Thyroid stimulating antibodies in the serum of hyperthyroid mice were analysed by measuring cyclic adenosine monophosphate (cAMP) generation in Chinese hamster ovary (CHO) cells JP2626 expressing the human TSHR (kindly provided by Dr. Gilbert Vassart, Brussels, Belgium). […]

Series [3] is classed as physicochemical. The text has this: Peptide 836 is a 24-meric cyclic peptide corresponding to the eighth TSHR LRD loop, and peptide 829 (also 24-meric) to the first loop of the TSHR LRD.

Peptide text beside a SMILES is read from it.

For “TSHR-Fc: fusion protein: first 289 amino acids of human TSH receptor (A-subunit), GGR linker and Fc portion of human IgG2”, the ventricular myocardial volumes result in series [1] is reported as “significantly reduced ventricular myocardial volumes”. In addition, the “maximum TSHR-dependent cAMP levels induced in test cells by mouse serum” value in series [2] is “not affected”.

Turning to SPPCECHQEEDFRVTCKDIQRIPS [peptide 829], the “maximum TSHR-dependent cAMP levels induced in test cells by mouse serum” value in series [2] was “not significantly different from controls”. Further, in series [3], the solubility in water result is recorded as “easily soluble in water”.

In the case of `CC[C@H](C)[C@@H]1NC(=O)[C@H](C(C)C)NC(=O)[C@H]([C@@H](C)O)NC(=O)[C@H](CC(C)C)NC(=O)[C@H](Cc2ccc(O)cc2)NC(=O)[C@H](CCCCN)NC(=O)[C@H](CC(N)=O)NC(=O)[C@H](CCCCN)NC(=O)[C@H](CC(N)=O)NC(=O)[C@H](CC(C)C)NC(=O)[C@H](Cc2ccc(O)cc2)NC(=O)[C@H](C(C)C)NC(=O)[C@H](C)NC(=O)[C@H](CC(=O)O)NC(=O)[C@H](CC(C)C)NC(=O)[C@H](CCCCN)NC(=O)[C@H]([C@@H](C)O)NC(=O)CNC(=O)[C@H](CC(N)=O)NC(=O)[C@H](Cc2ccccc2)NC(=O)[C@H](C)NC(=O)[C@H](Cc2ccc(O)cc2)NC(=O)CNC(=O)[C@H](CC(=O)O)NC1=O` [peptide 836] (cyclo(GYAFNGTKLDAVYLNKNKYLTVID)), in series [1], the ventricular myocardial volumes entry was “significantly reduced ventricular myocardial volumes”. Also, in series [3], the solubility in water result was “easily soluble in water”.

The record behind these values is patent US11459375B2, “Cyclic peptides for the treatment of Graves' disease” (advanceCOR GmbH, priority 2017, dated 2022).
